Test results reported in patent publication US10494402B2, “Peptides that stimulate subcutaneous adipogenesis” (The Regents of the University of California, priority 2012, dated 2019).

What was measured:
[1] = system: rat mesenchymal stem cells; assay: Adipogenesis Assay 2 (dexamethasone/insulin/indomethacin induction, then peptide; Oil Red O or BODIPY); format: cell-based; details: for adipogenic activity, Oil Red O, fold change relative to negative control / Fold adipogenic induction vs. negative control / Specific activity (activity/1000 daltons): Assay 2; for adipogenic activity, Oil Red O, fold change relative to negative control: 0.5, 5, and 50 μg/ml over 3 weeks; for adipogenic activity of pentamers / adipogenic activity relative to KSEVSK hexamer: FIG. 35, groups labelled A2-, doses 1, 5, 25 μg, absorbance at 520 nm
Procedure: Reagents: The dexamethasone, insulin, and Oil Red O solutions were the same as described above for assay 1. Indomethacin Solution contained 10 mM indomethacin in methanol. The BODIPY 493/503 dye was used at a concentration of 4 μM.
Adipogenesis Maintenance Media was prepared as described above.
Adipogenesis Induction Media: To prepare 501 mL of Adipogenesis Induction Media, 50 μL of the 10 mM stock solution of dexamethasone, 500 μL of the 10 mg/ml stock solution of insulin, 5 ml of a 10 mM stock solution of indomethacin, and 5 mL of a 100× stock solution of penicillin and streptomycin were added to 490 mL of mesenchymal stem cell expansion media.
Pre-adipocyte stem cells, bone marrow mesenchymal stem cells and fibroblasts such as dermal reticular and papillary fibroblasts were propagated using standard tissue culture methods. Cells were trypsinized to remove cells from the substratum, the trypsin was neutralized, and cells were counted using a hemocytometer. Cells were resuspended at 60,000 cells/ml in low glucose DMEM containing 10% calf serum. 1 mL of cell suspension per well was plated in a 24-well plate, with several wells left empty for blank well staining.
Cells were incubated overnight and had reached confluency at this point. Approximately 1.8 ml of media was removed from each well and replaced with 2 ml Adipogenesis Induction Media. For negative control wells, expansion medium only was used at this step and for subsequent media changes. For all media changes, media was replaced as gently as possible to avoid disturbing the monolayer.
Media was removed and replaced with 2 ml of maintenance medium containing either RHAMM antagonist peptides (experimental group) or insulin (concentration as in the induction medium used as positive control). […]
Media was removed and BODIPY or Oil Red O staining was performed as described above for assay 1.
As described above in Example 1, two different adipogenesis assays were used herein to assess the adipogenic effects of the peptides in rat mesenchymal stem cells. Assay 1 is an assay that is typically used to promote transdifferentiation of fibroblasts into adipocytes, whereas Assay 2 is typically used to promote differentiation of multi-potential mesenchymal progenitor cells into adipocytes. Immortalized rat bone marrow mesenchymal stem cells were used for both assays. These cells contain cells of different lineages, including fibroblasts, pre-adipocytes, pre-chondrocytes and pre-osteoblasts. Thus, Assay 1 was used to promote transdifferentiation of the fibroblast lineages into adipocytes and Assay 2 was used to promote differentiation of the pre-adipocytes into adipocytes.
As described in Example 1 above, the priming stimulus for Assay 1 includes IBMX (3-isobutyl-1-methylxanthine) and dexamethasone, and then insulin as the final adipogenic stimulus. The priming stimulus for assay 2 includes IBMX, dexamethasone and indomethacin, and then insulin as the final adipogenic stimulus.

[2] = system: rat mesenchymal stem cells; assay: Adipogenesis Assay 1 (IBMX/dexamethasone priming, peptide replaces insulin; Oil Red O or BODIPY); format: cell-based; details: for adipogenic activity, Oil Red O, fold change relative to negative control / Fold adipogenic induction vs. negative control / Specific activity (activity/1000 daltons): Assay 1; for adipogenic activity, Oil Red O, fold change relative to negative control: 0.5, 5, and 50 μg/ml over 3 weeks; for adipogenic activity of truncation fragments: truncation experiments, assays 1 and 2, FIGS. 7, 8, 9
Procedure: Reagents: (1) 3-isobutyl-1-methylxanthine (IBMX) solution: 0.5M in DMSO; (2) Insulin solution: 10 mg/mL recombinant human insulin; (3) Dexamethasone solution in 10 mM in ethanol; (4) Oil Red O (0.36% in 60% isopropanol) or BODIPY dye (BODIPY 493/503 (4,4-difluoro-1,3,5,7-tetramethyl-4-bora-3a,4a-diaza-s-indacene-8-propionic acid, succinimidyl ester) from Invitrogen at 4-10 μM).
Adipogenesis Initiation Media: mesenchymal stem cell expansion media/0.5 mM IBMX/1 μM dexamethasone. Mesenchymal stem cell expansion media is commercially available from Millipore. The IBMX Solution was diluted 1:1000 and the Dexamethasone Solution was diluted 1:10,000 in expansion media containing antibiotics and antimycotics. The prepared media was stored at 4° C.
Adipogenesis Progression Media for positive control: mesenchymal stem cell expansion media/10 μg/mL insulin. The Insulin Solution was diluted 1:1000 in the expansion media and stored at 4° C.
Experimental Adipogenesis Progression Media: mesenchymal stem cell expansion media/1-100 μg/mL RHAMM antagonist peptides.
Adipogenesis Maintenance Media: mesenchymal stem cell expansion media containing antibiotics and antimycotics.
Negative Control Media: DMEM/10% normal calf serum.
Pre-adipocyte stem cells including bone marrow mesenchymal stem cells and fibroblasts including reticular and papillary dermal fibroblasts were propagated using standard tissue culture methods. Cells were trypsinized to remove the cells from the substratum. The trypsin was neutralized and cells were counted using a hemocytometer. Cells were resuspended at 30,000 cells/mL in expansion media. […] of cell suspension was plated per well of 24-well plate, with several wells left empty for blank well staining.
Cells were incubated for 1-2 days until they reached confluency. Approximately 1.8 mL of media was removed from each well and replaced with 2 mL Adipogenesis Initiation Media. For negative control wells, expansion media only was used at this step and for subsequent media changes. For all media changes, media was replaced as gently as possible to avoid disturbing the monolayer.
Cells were incubated for 48 hours at 37° C., 5% CO2. 2 mL media was removed from each well, and replaced with 2 mL either positive control or experimental Adipogenesis Progression Media per well. Cells were again incubated for 48 hours at 37° C., 5% CO2. 2 mL of media was removed from each well and replaced with 2 mL Adipogenesis Maintenance Media per well. In addition, media was added to the empty wells reserved for blank well staining Cells were incubated for at least 48 hours at 37° C., 5% CO2. Media was replaced every 48-72 hours. Accumulation of intracellular lipid droplets continued for at least 5 days.
For quantification of Oil Red O staining, media was removed and cells were washed twice with PBS, using care to gently add the PBS. 0.5 mL Oil Red O solution was added per well of 24-well plate, including to the wells lacking cells, but containing media. Cells were incubated for 15 minutes at room temperature. The staining solution was then removed and wells were washed three times with 1 mL of phosphate buffered saline (PBS). In some experiments, following removal of the last wash, stained plates were scanned or photographed.
Adipogenesis was quantified using a spectrophotometer or fluorometer. 0.25 mL Dye Extraction Solution (isopropyl alcohol) was added per well, and the plate was set on an orbital shaker or platform rocker for 15-30 minutes. Extracted dye was transferred into a cuvette and absorbance was read in a spectrophotometer at visible range for oil red 0 or transferred to a 96-well plate and quantified in a plate reader.
For quantification of BODIPY dye uptake, media was removed and cells were washed twice with PBS, using care to gently add the PBS. Cells were then fixed in 3% paraformaldehyde, washed in PBS then incubated for 1 hour in the dark with the BODIPY solution, prepared in PBS. […]

[3] = system: 2D rat Pre-adipocytes (rat mesenchymal stem cells); assay: Adipogenic potential ranking in 2D tissue culture, rat pre-adipocytes; format: cell-based; details: ranked on a scale of 0-5 with 5 representing the highest possible score
Procedure: (§1) Examples of the adipogenic effects of RHAMM antagonists (peptide B (SEQ ID NO: 2), peptide P15-1 (SEQ ID NO. 1), and the antibody to peptide B) are summarized in Table 1. Peptide P15-1, peptide B, and a RHAMM antibody were assayed for their effects on pre-adipocyte stem cells in culture and when injected into the dermis of aged rats. Reagents were ranked on a scale of 0-5 with 5 representing the highest possible score and a completely filled in Harvey ball. “2D” refers to two-dimensional tissue culture.

Rat skin = assay: Rat dermal skin model of adipogenesis (injection into dermis); format: in vivo; details: injected into the dermis of aged rats; scale of 0-5, 5 highest
Procedure: as §1
In FIGS. 5A and 5B, data are shown as a ratio of the area (“surface area”) of fat pads expressed as a ratio of experimental/control values.
The 6-mer (KSEVSK; SEQ ID NO: 3) was tested for adipogenic effect in rat skin in vivo. The results of this testing are shown in the photographs in FIG. 10.

2D human Pre-adipocytes = assay: Adipogenic potential ranking in 2D tissue culture, human pre-adipocytes; format: cell-based; details: scale of 0-5, 5 highest
Procedure: as §1

[4] = system: mesenchymal stem cells or papillary fibroblasts; assay: Adipogenesis by RHAMM antagonists in tissue culture and in vivo (summary statements)
Excerpt: We hypothesized that the fragment and the antibody were blocking RHAMM function by competitive inhibition and by direct binding/blocking of RHAMM, respectively. Using truncation analyses, the size of the peptide was further reduced to 32 amino acids ([…] (SEQ ID NO: 92)) and it was shown that adipogenic activity is localized to a 15 amino acid peptide (KLKDENSQLKSEVSK (SEQ ID NO: 2); “peptide B” or “B-1” herein) shown in FIG. 2. This peptide was chemically synthesized to use as a competitive blocker, and antibodies were prepared against this sequence tagged with keyhold lymphocyte hemacyanin (KLH) to directly bind/block RHAMM function.
The RHAMM sequence that contains adipogenic activity also contains the hyaluronan binding region of this protein.
All of these reagents can replace insulin in their ability to promote adipogenesis in mesenchymal stem cells or papillary fibroblasts.

mesenchymal stem cell = assay: Adipogenesis with commercially available mesenchymal stem cell kit; format: cell-based
Procedure: Ablation of RHAMM expression promotes adipogenesis (Tolg et al., 2006, J Cell Biol). A RHAMM carboxy-terminal sequence [^AA681LDAFEAEKQA LLNEHGATQEQLNKIRDSYAQLLGHQNLKQKIKHVVKLKDENSQLKSEVSKLRSQLVKRKQNELRLQGELDKALGIRHFDPSKAFCHASKENFTPLKEGNPNCC^aa794 (SEQ ID NO: 91)] was produced as a recombinant protein, and antibodies were prepared to this protein fragment.

Molecule: STMMRSH
- adipogenic activity, Oil Red O, fold change relative to negative control [1]: active at the 0.5 μg/ml concentration
- adipogenic activity, Oil Red O, fold change relative to negative control [2]: significantly greater adipogenic activity than the negative control

Molecule: STMMSRSHKTRSHHV [peptide P15-1, reference compound]
- adipogenic potential, 2D rat Pre-adipocytes (rat mesenchymal stem cells) [3]: 2
- adipogenic potential, In vivo Rat skin (Rat skin): 2
- adipogenic potential, 2D human Pre-adipocytes (2D human Pre-adipocytes): 2
- adipogenesis in tissue culture and in vivo [4]: promotes adipogenesis in tissue culture and in vivo

Molecule: LSELEK
- adipogenic activity, Oil Red O, fold change relative to negative control [1]: increased adipogenesis

Molecule: STMMSRSHK
- adipogenic activity of truncation fragments [2]: has adipogenic activity

Molecule: LKSEVSK
- Fold adipogenic induction vs. negative control [1]: 3
- Specific activity (activity/1000 daltons) [1]: 3.39 activity/1000 daltons
- Fold adipogenic induction vs. negative control [2]: 2
- Specific activity (activity/1000 daltons) [2]: 2.26 activity/1000 daltons
- adipogenic activity of truncation fragments [2]: also found to be adipogenic

Molecule: SQLKSEVSK
- Fold adipogenic induction vs. negative control [1]: 3.0
- Specific activity (activity/1000 daltons) [1]: 2.64 activity/1000 daltons
- Fold adipogenic induction vs. negative control [2]: 2.4
- Specific activity (activity/1000 daltons) [2]: 2.11 activity/1000 daltons
- adipogenic activity of truncation fragments [2]: found to be adipogenic

Molecule: KLKDENS [fragment corresponding to one half of peptide B]
- adipogenic activity of truncation fragments [2]: Only the SQLKSEVSK (SEQ ID NO: 44) fragment was found to be adipogenic

Molecule: STTMSR
- adipogenic activity, Oil Red O, fold change relative to negative control [1]: weakly adipogenic
- adipogenic activity, Oil Red O, fold change relative to negative control [2]: weakly adipogenic

Molecule: STRMSR
- adipogenic activity, Oil Red O, fold change relative to negative control [1]: weakly adipogenic
- adipogenic activity, Oil Red O, fold change relative to negative control [2]: weakly adipogenic

Molecule: SEVSK
- adipogenic activity of pentamers [1]: low level of adipogenic activity
- adipogenic activity relative to KSEVSK hexamer [1]: much less active than the KSEVSK (SEQ ID NO: 3) hexamer

Molecule: SIMMSR
- adipogenic activity, Oil Red O, fold change relative to negative control [1]: weakly adipogenic
- adipogenic activity, Oil Red O, fold change relative to negative control [2]: weakly adipogenic

Molecule: ASEVSA
- adipogenic activity, Oil Red O, fold change relative to negative control [2]: significantly increased adipogenic activity as compared to both the negative control and the KSEVSK 6-mer

Molecule: KSEVS
- adipogenic activity of pentamers [1]: low level of adipogenic activity
- adipogenic activity relative to KSEVSK hexamer [1]: much less active than the KSEVSK (SEQ ID NO: 3) hexamer

B1: SEQ ID NO: 91: RHAMM carboxy-terminal sequence (aa681-aa794) produced as a recombinant protein (protein)
chain: LDAFEAEKQALLNEHGATQEQLNKIRDSYAQLLGHQNLKQKIKHVVKLKDENSQLKSEVSKLRSQLVKRKQNELRLQGELDKALGIRHFDPSKAFCHASKENFTPLKEGNPNCC
- adipogenesis (mesenchymal stem cell): promoted adipogenesis
